Assay results published in PubChem BioAssay (NCI).
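Five compound concentrations were applied to cells in 96-well plates for 48 hours; endpoints were derived by simple linear interpolation of the resulting dose-response curve. GI50 marks 50% less growth. TGI is the concentration that stops growth completely.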

Columns and labels:
Experiment in all cases: DTP human tumour cell line panel, 48 h
786-0 renal = test system: 786-0 renal
A498 renal = test system: A498 renal
A549 NSCLC = test system: A549 NSCLC
ACHN renal = test system: ACHN renal
BT-549 breast = test system: BT-549 breast
CAKI-1 renal = test system: CAKI-1 renal
CCRF-CEM leukemia = test system: CCRF-CEM leukemia
COLO 205 colon = test system: COLO 205 colon
DU-145 prostate = test system: DU-145 prostate
EKVX NSCLC = test system: EKVX NSCLC
HCC-2998 colon = test system: HCC-2998 colon
HCT-116 colon = test system: HCT-116 colon
HCT-15 colon = test system: HCT-15 colon
HL-60(TB) leukemia = test system: HL-60(TB) leukemia
HOP-62 NSCLC = test system: HOP-62 NSCLC
HOP-92 NSCLC = test system: HOP-92 NSCLC
HS 578T breast = test system: HS 578T breast
HT29 colon = test system: HT29 colon
IGROV1 ovarian = test system: IGROV1 ovarian
K-562 leukemia = test system: K-562 leukemia
KM12 colon = test system: KM12 colon
LOX IMVI melanoma = test system: LOX IMVI melanoma
M14 melanoma = test system: M14 melanoma
MALME-3M melanoma = test system: MALME-3M melanoma
MCF7 breast = test system: MCF7 breast
MDA-MB-231 breast = test system: MDA-MB-231 breast
MDA-MB-435 = test system: MDA-MB-435
MOLT-4 leukemia = test system: MOLT-4 leukemia
NCI-H226 lung = test system: NCI-H226 lung
NCI-H23 lung = test system: NCI-H23 lung
NCI-H460 lung = test system: NCI-H460 lung
NCI-H522 lung = test system: NCI-H522 lung
NCI/ADR-RES ovarian = test system: NCI/ADR-RES ovarian
OVCAR-3 ovarian = test system: OVCAR-3 ovarian
OVCAR-4 ovarian = test system: OVCAR-4 ovarian
OVCAR-5 ovarian = test system: OVCAR-5 ovarian
OVCAR-8 ovarian = test system: OVCAR-8 ovarian
PC-3 prostate = test system: PC-3 prostate
RPMI-8226 leukemia = test system: RPMI-8226 leukemia
RXF 393 renal = test system: RXF 393 renal
SF-268 CNS = test system: SF-268 CNS
SF-295 CNS = test system: SF-295 CNS
SF-539 CNS = test system: SF-539 CNS
SK-MEL-2 melanoma = test system: SK-MEL-2 melanoma
SK-MEL-28 melanoma = test system: SK-MEL-28 melanoma
SK-MEL-5 melanoma = test system: SK-MEL-5 melanoma
SK-OV-3 ovarian = test system: SK-OV-3 ovarian
SN12C renal = test system: SN12C renal
SNB-19 CNS = test system: SNB-19 CNS
SNB-75 CNS = test system: SNB-75 CNS
SR leukemia = test system: SR leukemia
SW-620 colon = test system: SW-620 colon
T-47D breast = test system: T-47D breast
TK-10 renal = test system: TK-10 renal
U251 CNS = test system: U251 CNS
UACC-257 melanoma = test system: UACC-257 melanoma
UACC-62 melanoma = test system: UACC-62 melanoma
UO-31 renal = test system: UO-31 renal

With `COC(=O)c1cc(C)[nH]c2c(C)cc3nc4ccccc4c3c12` the GI50 (786-0 renal) was 7.1 µM, the TGI (786-0 renal) was 21.4 µM and the GI50 (A498 renal) was 6.07 µM. It also gave a TGI (A498 renal) of 21.2 µM, a GI50 (A549 NSCLC) of 10.2 µM and a TGI (A549 NSCLC) of 22.8 µM. It also gave a GI50 (ACHN renal) of 11.6 µM, a TGI (ACHN renal) of 25.4 µM and a GI50 (BT-549 breast) of 12.1 µM. The TGI (BT-549 breast) was 25 µM, the GI50 (CAKI-1 renal) was 2890 nM and the TGI (CAKI-1 renal) was 13.4 µM. For the same compound, the GI50 (CCRF-CEM leukemia) was 5.23 µM, the TGI (CCRF-CEM leukemia) was 86.4 µM and the GI50 (COLO 205 colon) was 12.7 µM. The TGI (COLO 205 colon) was 25.8 µM, the GI50 (DU-145 prostate) was 11.8 µM and the TGI (DU-145 prostate) was 24.7 µM. For the same compound, the GI50 (EKVX NSCLC) was 6.5 µM, the TGI (EKVX NSCLC) was 20.5 µM and the GI50 (HCC-2998 colon) was 8.99 µM. It also gave a TGI (HCC-2998 colon) of 23.9 µM, a GI50 (HCT-116 colon) of 10.2 µM and a TGI (HCT-116 colon) of 23 µM. The GI50 (HCT-15 colon) was 5.19 µM, the TGI (HCT-15 colon) was 22.2 µM and the GI50 (HL-60(TB) leukemia) was 7.34 µM. The TGI (HL-60(TB) leukemia) was 55.3 µM, the GI50 (HOP-62 NSCLC) was 12.4 µM and the TGI (HOP-62 NSCLC) was 25.1 µM. It also gave a GI50 (HOP-92 NSCLC) of 5.85 µM, a TGI (HOP-92 NSCLC) of 20.7 µM and a GI50 (HS 578T breast) of 15 µM. The TGI (HS 578T breast) was > 100 µM, the GI50 (HT29 colon) was 3.11 µM and the TGI (HT29 colon) was 13.5 µM. The GI50 (IGROV1 ovarian) was 6.01 µM, the TGI (IGROV1 ovarian) was 23.9 µM and the GI50 (K-562 leukemia) was 4.34 µM. For the same compound, the TGI (K-562 leukemia) was 46.1 µM, the GI50 (KM12 colon) was 4.94 µM and the TGI (KM12 colon) was 18.1 µM. It also gave a GI50 (LOX IMVI melanoma) of 5.38 µM, a TGI (LOX IMVI melanoma) of 32.2 µM and a GI50 (M14 melanoma) of 11 µM. The TGI (M14 melanoma) was 23.7 µM, the GI50 (MALME-3M melanoma) was 14.7 µM and the TGI (MALME-3M melanoma) was 28.5 µM. The GI50 (MCF7 breast) was 8.01 µM, the TGI (MCF7 breast) was 22.8 µM and the GI50 (MDA-MB-231 breast) was 2440 nM. It also gave a TGI (MDA-MB-231 breast) of 10.5 µM, a GI50 (MDA-MB-435) of 9.01 µM and a TGI (MDA-MB-435) of 22.2 µM. The GI50 (MOLT-4 leukemia) was 4.83 µM, the TGI (MOLT-4 leukemia) was 42.2 µM and the GI50 (NCI-H226 lung) was 14 µM. It also gave a TGI (NCI-H226 lung) of 28.9 µM, a GI50 (NCI-H23 lung) of 7.54 µM and a TGI (NCI-H23 lung) of 26.4 µM. The GI50 (NCI-H460 lung) was 4.25 µM, the TGI (NCI-H460 lung) was 22.5 µM and the GI50 (NCI-H522 lung) was 3.23 µM. For the same compound, the TGI (NCI-H522 lung) was 14.5 µM, the GI50 (NCI/ADR-RES ovarian) was 3.87 µM and the TGI (NCI/ADR-RES ovarian) was 18 µM. The GI50 (OVCAR-3 ovarian) was 10.3 µM, the TGI (OVCAR-3 ovarian) was 22.1 µM and the GI50 (OVCAR-4 ovarian) was 12.5 µM. For the same compound, the TGI (OVCAR-4 ovarian) was 25.3 µM, the GI50 (OVCAR-5 ovarian) was 15.6 µM and the TGI (OVCAR-5 ovarian) was 32.7 µM. It also gave a GI50 (OVCAR-8 ovarian) of 6.35 µM, a TGI (OVCAR-8 ovarian) of 19 µM and a GI50 (PC-3 prostate) of 4.86 µM. It also gave a TGI (PC-3 prostate) of 18.8 µM, a GI50 (RPMI-8226 leukemia) of 5.75 µM and a TGI (RPMI-8226 leukemia) of 46.9 µM. The GI50 (RXF 393 renal) was 11.6 µM, the TGI (RXF 393 renal) was 25 µM and the GI50 (SF-268 CNS) was 11 µM. The TGI (SF-268 CNS) was 23.8 µM, the GI50 (SF-295 CNS) was 3.41 µM and the TGI (SF-295 CNS) was 14.1 µM. It also gave a GI50 (SF-539 CNS) of 12.4 µM, a TGI (SF-539 CNS) of 26.4 µM and a GI50 (SK-MEL-2 melanoma) of 13.2 µM. It also gave a TGI (SK-MEL-2 melanoma) of 28.8 µM, a GI50 (SK-MEL-28 melanoma) of 14.6 µM and a TGI (SK-MEL-28 melanoma) of 28.3 µM. It also gave a GI50 (SK-MEL-5 melanoma) of 5.97 µM, a TGI (SK-MEL-5 melanoma) of 19.2 µM and a GI50 (SK-OV-3 ovarian) of 13.4 µM. It also gave a TGI (SK-OV-3 ovarian) of 26.5 µM, a GI50 (SN12C renal) of 11.7 µM and a TGI (SN12C renal) of 30.8 µM. For the same compound, the GI50 (SNB-19 CNS) was 12.7 µM, the TGI (SNB-19 CNS) was 29.5 µM and the GI50 (SNB-75 CNS) was 8.5 µM. For the same compound, the TGI (SNB-75 CNS) was 21 µM, the GI50 (SR leukemia) was 6.13 µM and the TGI (SR leukemia) was 58.2 µM. It also gave a GI50 (SW-620 colon) of 7.91 µM, a TGI (SW-620 colon) of 27 µM and a GI50 (T-47D breast) of 3.2 µM. For the same compound, the TGI (T-47D breast) was 12.9 µM, the GI50 (TK-10 renal) was 5.73 µM and the TGI (TK-10 renal) was 19.5 µM. For the same compound, the GI50 (U251 CNS) was 10.7 µM, the TGI (U251 CNS) was 23.9 µM and the GI50 (UACC-257 melanoma) was 16.1 µM. For the same compound, the TGI (UACC-257 melanoma) was 30 µM, the GI50 (UACC-62 melanoma) was 5.99 µM and the TGI (UACC-62 melanoma) was 21.1 µM. It also gave a GI50 (UO-31 renal) of 4.46 µM and a TGI (UO-31 renal) of 19.1 µM.
